Earlier results as cited in patent US10398673B2, “Mast cell stabilizers treatment for systemic disorders” (Respivant Sciences GmbH, priority 2014, dated 2019).

## O=C(O)c1cc(=O)c2c(OCC(O)COc3cccc4oc(C(=O)O)cc(=O)c34)cccc2o1 [cromolyn sodium]
  oral bioavailability: less than 1%
